Reference: US9266876B2 (Actelion Pharmaceuticals Ltd., priority 2012, dated 2016)
Read-outs that look alike come from different tables or passages of the source.

Legend:
human CXCR3A = human CXCR3A (Homo sapiens (Human), UniProt P49682); assay: FLIPR assay; format: cell-based; details: CHO-K1 cells expressing the human CXCR3A coupled to Galpha(16); CXCL10 agonist 20 nM; Fluo-4-AM fluorescence; mean values if determined several times
How it was run: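 CHO-K1 cells expressing CXCR3A coupled to Gα16 were loaded with Fluo-4-AM for 1 h in Hepes-buffered HBSS, pH 7.4, with 5 mM probenecid. Compound dilutions were added on the FLIPR, followed by CXCL10 (added as a 20 nM solution). Baseline-subtracted peak fluorescence was fitted to a single-site curve for IC50.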

CXCR3 = CXCR3 (Homo sapiens (Human), UniProt P49682); assay: Receptor internalization assay; format: cell-based
How it was run: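 In human whole blood, compounds were incubated with CXCL10 (9 nM final) for 30 min at 37 °C to drive receptor internalization, then stained with anti-CXCR3/CD3 antibodies and lysed of red cells. Flow cytometry measured mean surface CXCR3 fluorescence on CD3+ cells, and IC50 came from single-site dose-response fits.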

[1] = human whole blood, final CXCL10 concentration 9 nM, 30 min 37° C., CXCR3 cell surface expression on CD3 positive cells, flow cytometer, read-out: Internalization IC50

Sequence of CXCR3 (P49682 whole entry): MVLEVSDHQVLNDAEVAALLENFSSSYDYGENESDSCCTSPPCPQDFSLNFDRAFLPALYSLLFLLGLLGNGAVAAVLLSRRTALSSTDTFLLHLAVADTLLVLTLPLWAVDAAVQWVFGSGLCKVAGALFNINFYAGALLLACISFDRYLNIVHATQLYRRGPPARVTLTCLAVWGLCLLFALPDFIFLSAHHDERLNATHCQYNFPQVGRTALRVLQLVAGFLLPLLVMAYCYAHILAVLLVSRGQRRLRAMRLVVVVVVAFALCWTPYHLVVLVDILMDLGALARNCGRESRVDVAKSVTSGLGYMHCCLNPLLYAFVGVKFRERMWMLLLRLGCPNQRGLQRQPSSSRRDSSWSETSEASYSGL
Sequence of human CXCR3A (P49682 whole entry): as above

Row | SMILES | IC50 (human CXCR3A) | IC50 (CXCR3; [1]) | IC50 (CXCR3)
1 | C[C@@H]1CN(c2scnc2-c2nc3ccccc3[nH]2)CCN1C(=O)Cn1ccc2ccnc(Cl)c21 [Example 142, 1-{(R)-4-[4-(1H-Benzoimidazol-2-yl)-thiazol-5-yl]-2-methyl-piperazin-1-yl}-2-(7-chloro-pyrrolo[2,3-c]pyridin-1-yl)-ethanone] | 2 nM | 352 nM | 
2 | C[C@@H]1CN(c2scnc2-c2nc3ccccc3[nH]2)CCN1C(=O)Cn1cc(Cl)c2cccnc21 [Example 143, 1-{(R)-4-[4-(1H-Benzoimidazol-2-yl)-thiazol-5-yl]-2-methyl-piperazin-1-yl}-2-(3-chloro-pyrrolo[2,3-b]pyridin-1-yl)-ethanone] | 1 nM | 723 nM | 
3 | Cc1nc(-c2nc3ccccc3[nH]2)c(N2CCN(C(=O)Cn3cnc4cccnc43)[C@H](C)C2)s1 [Example 144, 1-{(R)-4-[4-(1H-Benzoimidazol-2-yl)-2-methyl-thiazol-5-yl]-2-methyl-piperazin-1-yl}-2-imidazo[4,5-b]pyridin-3-yl-ethanone] | 2 nM | 933 nM | 
4 | C[C@@H]1CN(c2sc(C(F)(F)F)nc2-c2nc3cc(Cl)ccc3[nH]2)CCN1C(=O)Cn1cnc2cccnc21 [Example 147, 1-{(R)-4-[4-(5-Chloro-1H-benzoimidazol-2-yl)-2-trifluoromethyl-thiazol-5-yl]-2-methyl-piperazin-1-yl}-2-imidazo[4,5-b]pyridin-3-yl-ethanone] | 1 nM |  | 39 nM
5 | C[C@@H]1CN(c2sc(-c3ccccc3F)nc2-c2nc3ccccc3[nH]2)CCN1C(=O)Cn1cnc2cccnc21 [Example 148, 1-{(R)-4-[4-(1H-Benzoimidazol-2-yl)-2-(2-fluoro-phenyl)-thiazol-5-yl]-2-methyl-piperazin-1-yl}-2-imidazo[4,5-b]pyridin-3-yl-ethanone] | 24 nM | 4490 nM | 
6 | Cc1cccc(-c2nc(-c3nc4ccccc4[nH]3)c(N3CCN(C(=O)Cn4cnc5cccnc54)[C@H](C)C3)s2)c1 [Example 149, 1-{(R)-4-[4-(1H-Benzoimidazol-2-yl)-2-m-tolyl-thiazol-5-yl]-2-methyl-piperazin-1-yl}-2-imidazo[4,5-b]pyridin-3-yl-ethanone] | 16 nM | 5070 nM | 
7 | Cc1ccc(-c2nc(-c3nc4ccccc4[nH]3)c(N3CCN(C(=O)Cn4cnc5cccnc54)[C@H](C)C3)s2)cc1 [Example 150, 1-{(R)-4-[4-(1H-Benzoimidazol-2-yl)-2-p-tolyl-thiazol-5-yl]-2-methyl-piperazin-1-yl}-2-imidazo[4,5-b]pyridin-3-yl-ethanone] | 45 nM | 5680 nM | 
8 | C[C@@H]1CN(c2scnc2-c2nc3ccccc3[nH]2)CCN1C(=O)CN1C(=O)C(C)(C)c2ccccc21 [Example 151, 1-(2-{(R)-4-[4-(1H-Benzoimidazol-2-yl)-thiazol-5-yl]-2-methyl-piperazin-1-yl}-2-oxo-ethyl)-3,3-dimethyl-1,3-dihydro-indol-2-one] | 4 nM | 547 nM | 
9 | Cc1cccc2oc(=O)n(CC(=O)N3CCN(c4scnc4-c4nc5ccccc5[nH]4)C[C@H]3C)c12 [Example 152, 3-(2-{(R)-4-[4-(1H-Benzoimidazol-2-yl)-thiazol-5-yl]-2-methyl-piperazin-1-yl}-2-oxo-ethyl)-4-methyl-3H-benzooxazol-2-one] | 3 nM | 663 nM | 
10 | C[C@@H]1CN(c2scnc2-c2nc3ccccc3[nH]2)CCN1C(=O)Cn1c(=O)oc2cccc(F)c21 [Example 153, 3-(2-{(R)-4-[4-(1H-Benzoimidazol-2-yl)-thiazol-5-yl]-2-methyl-piperazin-1-yl}-2-oxo-ethyl)-4-fluoro-3H-benzooxazol-2-one] | 7 nM | 1030 nM | 
11 | C[C@@H]1CN(c2scnc2-c2nc3ccccc3[nH]2)CCN1C(=O)Cn1c(CO)cc2cccnc21 [Example 154, 1-{(R)-4-[4-(1H-Benzoimidazol-2-yl)-thiazol-5-yl]-2-methyl-piperazin-1-yl}-2-(2-hydroxymethyl-pyrrolo[2,3-b]pyridin-1-yl)-ethanone] | 14 nM | 3040 nM | 
